Measurements: paper PMC9469208 (Journal of Medicinal Chemistry, 2022)
Several values for one entry are separate records, joined by “and”; a condition that tells them apart may be missing. Equal values may be shown once. Read-outs that look alike come from different tables or passages of the source.

Legend:
recombinant human CYP2C9 = target: T1, recombinant human CYP2C9 (Homo sapiens, UniProt P11712); assay: CYP2C9 activity assay; type: in vitro ADME; details: comparable to the racemate
T1 construct: purchased Cerep (Eurofins), Poitiers, France; Promega P450-Glo; in-house COS-7 uptake assays

human SV2A = target: T2, human SV2A (Homo sapiens, UniProt Q7L0J3); assay: SV2A radioligand binding assay ([3H]brivaracetam); details: [3H]brivaracetam 3 nM, human SV2A-expressing CHO cell lysate
T2 construct: expressed in transfected cells; host or cells: CHO cells
Method: (§1) The competitive radioligand-binding assay was essentially performed as previously described.[96],[97] The SV2A-containing preparations, either cell lysate of human SV2A-expressing CHO cells, or membrane preparations of mouse brain cortex, were incubated with the radioligand [^3H]brivaracetam (3 nM) in the absence or presence of test compound for 4 h. Incubation was performed in 500 μL of Tris-buffer (50 mM Tris–HCl, pH 7.4) containing 2 mM MgCl2 at 4 °C on a rocking shaker. […] The test compounds were dissolved in dimethyl sulfoxide (DMSO) and further diluted in DMSO. The DMSO concentration in all vials was adjusted to 2%. The separation of bound and unbound radioligand was performed via rapid vacuum filtration using GF/C glass fiber filters that had been presoaked in Tris-buffer containing 0.1% polyethyleneimine for 30 min. The filters were rapidly washed three times with about 1 mL of Tris-buffer each and subsequently placed in a drying oven at 50 °C for 90 min. The filters were then transferred to scintillation vials and 2.5 mL of scintillation cocktail (ProSafe FC+, Meridian Biotechnologies Ltd.) was added. After an incubation period of at least 9 h, radioactivity was measured in a scintillation counter. Results were analyzed by GraphPad Prism 7.0.

mouse SV2A = target: T3, mouse SV2A (Mus musculus, UniProt Q9JIS5); assay: SV2A radioligand binding assay ([3H]brivaracetam); details: mouse brain cortex membranes
T3 construct: membrane preparations of mouse brain cortex; from tissue; host or cells: mouse brain cortex membranes
Method: as §1

EAAT3 = EAAT3 (Homo sapiens, UniProt P43005); details: transfected COS-7 cells
recombinant human CYP2D6 = target: T4, recombinant human CYP2D6 (Homo sapiens, UniProt P10635); assay: CYP2D6 P450-Glo assay; type: in vitro ADME; details: only at the highest concentration of 25 μM
T4 construct: purchased Cerep (Eurofins), Poitiers, France; Promega P450-Glo; in-house COS-7 uptake assays
Description: (§2) The luminescent CYP3A4 P450-Glo and CYP2D6 P450-Glo assays and protocols were provided by Promega (Madison, WI).[98] The procedures were provided by the manufacturer and were similar as previously reported for the racemate I.[29]

CB1 (h) = target: T5, CB1 (h) (Homo sapiens, UniProt P21554); assay: CB1 (h) functional assay; type: cell-based
T5 construct: purchased Cerep (Eurofins), Poitiers, France; Promega P450-Glo; in-house COS-7 uptake assays
Description: (§3) The general information is listed in the Supporting Information.

mGluR5 (h) = target: T6, mGluR5 (h) (Homo sapiens, UniProt P41594); assay: mGluR5 (h) binding (agonist radioligand); details: human recombinant, read-out: % Inhibition of control specific binding, mGluR5 (h)
T6 construct: purchased Cerep (Eurofins), Poitiers, France; Promega P450-Glo; in-house COS-7 uptake assays
Description: as §3

sst2 (h) = target: T7, sst2 (h) (Homo sapiens, UniProt P30874); assay: sst2 (h) functional assay; type: cell-based
T7 construct: purchased Cerep (Eurofins), Poitiers, France; Promega P450-Glo; in-house COS-7 uptake assays
Description: as §3

[1] = 100 mg/kg i.p., mice
5-HT6 (h) = target: T8, 5-HT6 (h) (Homo sapiens, UniProt P50406); assay: 5-HT6 (h) functional assay; type: cell-based
T8 construct: purchased Cerep (Eurofins), Poitiers, France; Promega P450-Glo; in-house COS-7 uptake assays
Description: as §3

recombinant human CYP3A4 = target: T9, recombinant human CYP3A4 (Homo sapiens, UniProt P08684); assay: CYP3A4 P450-Glo assay; type: in vitro ADME
T9 construct: purchased Cerep (Eurofins), Poitiers, France; Promega P450-Glo; in-house COS-7 uptake assays
Description: as §2

mGluR1 = target: T10, mGluR1 (Rattus norvegicus, UniProt P23385); assay: mGluR1 binding (agonist radioligand); details: read-out: % Inhibition of control specific binding, mGluR1
T10 construct: purchased Cerep (Eurofins), Poitiers, France; Promega P450-Glo; in-house COS-7 uptake assays

Glutamate, NMDA, Glycine = Glutamate, NMDA, Glycine (Rattus norvegicus, UniProt P35439); assay: Glutamate NMDA glycine [3H]MDL 105,519 binding; details: read-out: % Inhibition of control specific binding, Glutamate, NMDA, Glycine [3H] MDL 105,519
Description: as §3

mGlu2 (h) = target: T11, mGlu2 (h) (Homo sapiens, UniProt Q14416); assay: mGlu2 (h) binding (antagonist radioligand); details: human recombinant (Chem-1 cells), read-out: % Inhibition of control specific binding, mGlu2 (h)
T11 construct: purchased Cerep (Eurofins), Poitiers, France; Promega P450-Glo; in-house COS-7 uptake assays
Description: as §3

hERG potassium channel = hERG potassium channel (Homo sapiens, UniProt Q12809); assay: in vitro
[2] = target: T12, GLYT1 Glycine Transporter (Homo sapiens, UniProt P48067); assay: GLYT1 glycine transporter binding; details: rat brain, listed as (R)-7 [(R)-AS-1]
T12 construct: purchased Cerep (Eurofins), Poitiers, France; Promega P450-Glo; in-house COS-7 uptake assays
Description: as §3

D1 (h) = target: T13, D1 (h) (Homo sapiens, UniProt P21728); assay: D1 (h) functional assay; type: cell-based
T13 construct: purchased Cerep (Eurofins), Poitiers, France; Promega P450-Glo; in-house COS-7 uptake assays
Description: as §3

sst4 (h) = target: T14, sst4 (h) (Homo sapiens, UniProt P31391); assay: sst4 (h) functional assay; type: cell-based
T14 construct: purchased Cerep (Eurofins), Poitiers, France; Promega P450-Glo; in-house COS-7 uptake assays
Description: as §3

5-HT7 (h) = target: T15, 5-HT7 (h) (Homo sapiens, UniProt P34969); assay: 5-HT7 (h) functional assay; type: cell-based
T15 construct: purchased Cerep (Eurofins), Poitiers, France; Promega P450-Glo; in-house COS-7 uptake assays
Description: as §3

Dopamine transporter (h) = target: T16, Dopamine transporter (h) (Homo sapiens, UniProt Q01959); assay: Dopamine transporter (h) (antagonist radioligand); type: binding; details: read-out: % Inhibition, Dopamine transporter (h)
T16 construct: purchased Cerep (Eurofins), Poitiers, France; Promega P450-Glo; in-house COS-7 uptake assays
Description: as §3

GlyRA1 = target: T17, GlyRA1 (Homo sapiens, UniProt P23415); type: cell-based
T17 construct: purchased Cerep (Eurofins), Poitiers, France; Promega P450-Glo; in-house COS-7 uptake assays
T17 sequence (P23415 29-457): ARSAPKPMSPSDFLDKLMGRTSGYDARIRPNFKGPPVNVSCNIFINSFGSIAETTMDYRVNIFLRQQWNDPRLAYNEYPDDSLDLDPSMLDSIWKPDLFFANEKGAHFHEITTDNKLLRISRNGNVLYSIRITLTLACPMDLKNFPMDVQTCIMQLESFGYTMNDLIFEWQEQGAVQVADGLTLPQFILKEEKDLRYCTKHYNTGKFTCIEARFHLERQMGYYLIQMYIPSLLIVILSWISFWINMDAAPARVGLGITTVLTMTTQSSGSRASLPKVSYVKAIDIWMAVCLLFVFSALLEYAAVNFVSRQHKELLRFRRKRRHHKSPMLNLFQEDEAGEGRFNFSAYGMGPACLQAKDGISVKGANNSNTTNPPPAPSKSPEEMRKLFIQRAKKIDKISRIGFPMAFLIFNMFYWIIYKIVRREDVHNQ

EAAT1 = EAAT1 (Homo sapiens, UniProt P43003); details: transfected COS-7 cells
Alpha 1A (h) = target: T18, Alpha 1A (h) (Homo sapiens, UniProt P35348); assay: Alpha 1A (h) functional assay; type: cell-based
T18 construct: purchased Cerep (Eurofins), Poitiers, France; Promega P450-Glo; in-house COS-7 uptake assays
Description: as §3

Acetylcholinesterase (h) = target: T19, Acetylcholinesterase (h) (Homo sapiens, UniProt P22303); assay: Acetylcholinesterase (h) enzymatic activity; type: biochemical; details: read-out: % Inhibition, Acetylcholinesterase (h) enzymatic activity
T19 construct: purchased Cerep (Eurofins), Poitiers, France; Promega P450-Glo; in-house COS-7 uptake assays
Description: as §3

[3] = target: T20, Norepinephrine transporter (h) (Homo sapiens, UniProt P23975); assay: Norepinephrine transporter (h) (antagonist radioligand); type: binding; details: read-out: % Inhibition, Norepinephrine transporter (h)
T20 construct: purchased Cerep (Eurofins), Poitiers, France; Promega P450-Glo; in-house COS-7 uptake assays
Description: as §3

hCav3.2 = hCav3.2 (Homo sapiens, UniProt O95180); assay: cell-based
D2L (h) = target: T21, D2L (h) (Homo sapiens, UniProt P14416); assay: D2L (h) functional assay; type: cell-based
T21 construct: purchased Cerep (Eurofins), Poitiers, France; Promega P450-Glo; in-house COS-7 uptake assays
Description: as §3

[4] = 10 μM, listed as (R)-7 [(R)-AS-1]
[5] = 100 μM, listed as (R)-7 [(R)-AS-1]

hCav3.2, sequence (O95180 whole entry): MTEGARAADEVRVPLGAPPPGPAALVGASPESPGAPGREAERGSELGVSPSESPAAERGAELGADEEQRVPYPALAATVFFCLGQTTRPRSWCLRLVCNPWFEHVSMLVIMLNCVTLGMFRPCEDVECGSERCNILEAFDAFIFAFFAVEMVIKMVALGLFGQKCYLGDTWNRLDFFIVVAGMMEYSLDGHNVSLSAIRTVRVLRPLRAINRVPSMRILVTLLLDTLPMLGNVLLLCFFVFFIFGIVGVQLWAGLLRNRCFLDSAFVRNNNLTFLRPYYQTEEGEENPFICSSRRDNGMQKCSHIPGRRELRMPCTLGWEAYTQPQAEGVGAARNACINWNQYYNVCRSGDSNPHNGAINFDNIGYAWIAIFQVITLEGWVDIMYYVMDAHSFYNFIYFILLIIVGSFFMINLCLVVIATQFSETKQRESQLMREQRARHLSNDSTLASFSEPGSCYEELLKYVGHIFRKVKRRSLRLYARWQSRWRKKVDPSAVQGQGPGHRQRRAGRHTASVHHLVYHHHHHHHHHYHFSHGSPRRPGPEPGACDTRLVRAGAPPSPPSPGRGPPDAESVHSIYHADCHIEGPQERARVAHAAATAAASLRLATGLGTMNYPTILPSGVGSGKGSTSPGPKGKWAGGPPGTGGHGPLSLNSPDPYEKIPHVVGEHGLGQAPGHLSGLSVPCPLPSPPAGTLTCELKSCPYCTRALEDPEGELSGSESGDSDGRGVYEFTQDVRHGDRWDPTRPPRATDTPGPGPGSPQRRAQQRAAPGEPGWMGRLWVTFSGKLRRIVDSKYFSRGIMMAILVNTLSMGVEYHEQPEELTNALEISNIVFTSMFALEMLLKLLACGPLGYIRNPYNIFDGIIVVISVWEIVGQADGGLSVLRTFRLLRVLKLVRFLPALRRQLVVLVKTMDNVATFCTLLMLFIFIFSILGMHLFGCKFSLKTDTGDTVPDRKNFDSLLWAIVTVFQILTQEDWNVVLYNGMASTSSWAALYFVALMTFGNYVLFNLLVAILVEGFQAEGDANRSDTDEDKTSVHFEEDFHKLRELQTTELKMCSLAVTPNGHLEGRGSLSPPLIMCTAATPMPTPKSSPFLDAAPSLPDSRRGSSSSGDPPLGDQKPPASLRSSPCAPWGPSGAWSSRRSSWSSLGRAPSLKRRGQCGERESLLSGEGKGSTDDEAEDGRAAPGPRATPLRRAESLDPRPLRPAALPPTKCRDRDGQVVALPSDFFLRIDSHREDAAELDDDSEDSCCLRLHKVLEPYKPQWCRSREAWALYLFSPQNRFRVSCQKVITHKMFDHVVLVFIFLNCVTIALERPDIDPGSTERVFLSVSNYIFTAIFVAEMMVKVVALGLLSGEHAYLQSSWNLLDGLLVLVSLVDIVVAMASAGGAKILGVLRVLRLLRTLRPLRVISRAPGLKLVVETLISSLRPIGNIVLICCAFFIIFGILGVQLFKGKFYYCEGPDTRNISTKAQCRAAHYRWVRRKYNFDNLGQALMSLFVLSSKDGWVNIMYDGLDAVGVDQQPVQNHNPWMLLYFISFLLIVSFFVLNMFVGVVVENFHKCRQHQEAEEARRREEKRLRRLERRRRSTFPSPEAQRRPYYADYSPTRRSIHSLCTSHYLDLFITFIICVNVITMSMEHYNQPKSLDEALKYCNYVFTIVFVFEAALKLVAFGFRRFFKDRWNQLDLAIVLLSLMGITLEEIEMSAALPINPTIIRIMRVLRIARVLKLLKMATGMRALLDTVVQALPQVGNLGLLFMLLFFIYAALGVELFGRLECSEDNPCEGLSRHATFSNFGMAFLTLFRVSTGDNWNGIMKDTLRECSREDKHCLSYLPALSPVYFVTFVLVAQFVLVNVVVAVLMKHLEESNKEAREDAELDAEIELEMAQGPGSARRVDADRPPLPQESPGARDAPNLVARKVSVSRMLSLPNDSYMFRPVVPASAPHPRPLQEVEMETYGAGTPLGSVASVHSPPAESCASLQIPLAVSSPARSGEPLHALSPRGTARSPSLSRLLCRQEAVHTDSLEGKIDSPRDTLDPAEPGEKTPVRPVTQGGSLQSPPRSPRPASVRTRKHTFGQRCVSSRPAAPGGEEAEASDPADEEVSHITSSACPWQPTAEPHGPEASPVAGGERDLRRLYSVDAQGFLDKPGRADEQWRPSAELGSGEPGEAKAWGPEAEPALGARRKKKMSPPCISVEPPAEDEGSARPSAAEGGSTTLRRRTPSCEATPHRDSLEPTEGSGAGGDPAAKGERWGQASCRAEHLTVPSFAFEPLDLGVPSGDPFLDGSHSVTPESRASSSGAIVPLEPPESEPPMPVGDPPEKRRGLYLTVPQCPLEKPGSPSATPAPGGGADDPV
T7 sequence (P30874 whole entry): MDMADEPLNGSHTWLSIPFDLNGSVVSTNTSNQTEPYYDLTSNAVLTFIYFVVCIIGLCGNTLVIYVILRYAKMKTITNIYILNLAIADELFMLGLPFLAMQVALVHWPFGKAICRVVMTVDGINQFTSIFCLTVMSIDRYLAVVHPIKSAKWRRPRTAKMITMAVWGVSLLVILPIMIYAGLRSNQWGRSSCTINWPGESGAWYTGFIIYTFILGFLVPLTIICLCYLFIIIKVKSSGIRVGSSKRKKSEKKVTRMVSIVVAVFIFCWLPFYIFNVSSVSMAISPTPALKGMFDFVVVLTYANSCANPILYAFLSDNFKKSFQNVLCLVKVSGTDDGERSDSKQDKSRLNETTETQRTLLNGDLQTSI
T5 sequence (P21554 whole entry): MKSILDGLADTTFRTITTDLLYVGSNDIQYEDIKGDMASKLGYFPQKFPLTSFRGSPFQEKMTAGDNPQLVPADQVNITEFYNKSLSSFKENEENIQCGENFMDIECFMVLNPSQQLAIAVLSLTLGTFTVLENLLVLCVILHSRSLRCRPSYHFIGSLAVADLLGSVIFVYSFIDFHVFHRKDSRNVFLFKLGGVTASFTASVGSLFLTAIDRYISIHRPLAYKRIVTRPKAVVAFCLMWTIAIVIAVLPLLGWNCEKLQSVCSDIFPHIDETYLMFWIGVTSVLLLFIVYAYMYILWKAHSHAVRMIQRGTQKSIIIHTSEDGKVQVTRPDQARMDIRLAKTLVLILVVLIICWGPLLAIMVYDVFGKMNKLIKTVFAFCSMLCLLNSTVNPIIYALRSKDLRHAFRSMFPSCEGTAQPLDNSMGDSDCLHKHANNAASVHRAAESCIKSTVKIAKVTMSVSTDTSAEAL
T13 sequence (P21728 whole entry): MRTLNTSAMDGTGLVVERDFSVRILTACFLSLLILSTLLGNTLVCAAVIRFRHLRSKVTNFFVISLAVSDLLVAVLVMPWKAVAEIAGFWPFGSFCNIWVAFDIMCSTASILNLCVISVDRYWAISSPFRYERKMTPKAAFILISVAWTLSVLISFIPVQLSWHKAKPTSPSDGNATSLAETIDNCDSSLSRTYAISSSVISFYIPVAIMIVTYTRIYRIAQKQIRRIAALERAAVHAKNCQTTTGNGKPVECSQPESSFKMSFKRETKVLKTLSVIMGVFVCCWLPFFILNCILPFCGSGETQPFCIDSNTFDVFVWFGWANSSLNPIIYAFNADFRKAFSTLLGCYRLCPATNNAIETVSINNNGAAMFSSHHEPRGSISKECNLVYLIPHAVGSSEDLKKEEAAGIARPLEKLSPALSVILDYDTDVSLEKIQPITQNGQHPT
T2 sequence (Q7L0J3 whole entry): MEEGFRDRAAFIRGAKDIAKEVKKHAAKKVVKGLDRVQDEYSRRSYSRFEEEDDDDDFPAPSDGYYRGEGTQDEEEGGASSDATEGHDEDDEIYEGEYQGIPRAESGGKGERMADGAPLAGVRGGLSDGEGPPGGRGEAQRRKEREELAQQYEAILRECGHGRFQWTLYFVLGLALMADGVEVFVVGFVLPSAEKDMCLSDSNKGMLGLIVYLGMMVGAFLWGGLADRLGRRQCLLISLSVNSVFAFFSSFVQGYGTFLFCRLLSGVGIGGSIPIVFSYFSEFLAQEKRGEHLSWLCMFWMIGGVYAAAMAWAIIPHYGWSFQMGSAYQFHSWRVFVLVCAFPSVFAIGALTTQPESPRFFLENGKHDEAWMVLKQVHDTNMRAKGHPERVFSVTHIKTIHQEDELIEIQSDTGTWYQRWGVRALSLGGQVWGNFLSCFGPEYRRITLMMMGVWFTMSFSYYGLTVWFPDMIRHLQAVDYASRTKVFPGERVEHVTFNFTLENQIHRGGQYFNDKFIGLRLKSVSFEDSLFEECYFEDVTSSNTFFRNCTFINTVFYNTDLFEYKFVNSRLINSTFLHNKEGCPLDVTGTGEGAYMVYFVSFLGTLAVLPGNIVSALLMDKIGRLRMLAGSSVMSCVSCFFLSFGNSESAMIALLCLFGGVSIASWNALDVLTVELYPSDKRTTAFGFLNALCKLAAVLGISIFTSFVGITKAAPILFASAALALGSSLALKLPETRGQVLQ
T14 sequence (P31391 whole entry): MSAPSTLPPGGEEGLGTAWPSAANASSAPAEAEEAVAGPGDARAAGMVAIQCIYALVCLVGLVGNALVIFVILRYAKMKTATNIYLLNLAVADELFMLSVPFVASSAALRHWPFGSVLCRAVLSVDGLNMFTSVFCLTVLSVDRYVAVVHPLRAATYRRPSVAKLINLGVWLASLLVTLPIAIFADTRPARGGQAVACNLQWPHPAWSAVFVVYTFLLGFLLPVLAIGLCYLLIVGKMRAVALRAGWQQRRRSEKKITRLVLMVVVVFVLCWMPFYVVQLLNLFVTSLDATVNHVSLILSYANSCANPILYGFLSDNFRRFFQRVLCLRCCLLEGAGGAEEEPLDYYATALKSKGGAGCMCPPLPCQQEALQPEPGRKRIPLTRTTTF
T3 sequence (Q9JIS5 whole entry): as the sequence (Q7L0J3 whole entry) above, with S62A, T71A, E144D, A154T, G440S, S482A, I572V, M634L counted along it

C[C@H](C(=O)NCc1ccccc1)N1C(=O)CCC1=O [(R)-7, (R)-N-Benzyl-2-(2,5-dioxopyrrolidin-1-yl)propanamide]
effect in the CYP2C9 assay (recombinant human CYP2C9): moderate inhibitory effect
Ki (human SV2A): 275 µM and > 250 µM
Binding to mouse SV2A (mouse SV2A): no binding observed
effect on EAAT3-mediated glutamate uptake (EAAT3): no effects
effect on CYP2D6 (recombinant human CYP2D6): slight activation
% Effect, CB1 (h) (Agonist effect) (CB1 (h); 10 µM (as printed in the xlsx)): -6.83 (10 µM) %
% Effect, CB1 (h) (Agonist effect) (CB1 (h); 100 μM): -6.83%
inhibition at 100 µM (CB1 (h); read-out: % Inhibition, CB1 (h) (Antagonist effect)): 5.59%
inhibition at 10 µM (mGluR5 (h)): -7.78%
% Effect, sst2 (h) (Agonist effect) (sst2 (h); [4]): 0.50% and 0.50 (10 µM) %
inhibition at 50 µM (sst2 (h); 50 μM, read-out: % Inhibition, sst2 (h) (Antagonist effect)): 5.25%
AUC0–∞, brain ([1]; listed as (R)-7 [(R)-AS-1]): 2813.0 μg·min/mL(g) and 2813.04 μg·min/mL(g)
AUC0–∞, serum ([1]; listed as (R)-7 [(R)-AS-1]): 4625.8 μg·min/mL(g) and 4625.78 μg·min/mL(g)
Cmax, serum ([1]; listed as (R)-7 [(R)-AS-1]): 82.7 μg/mL(g) and 82.73 μg/mL(g)
total clearance ([1]; noncompartmental approach): approx. 0.6 mL/min
% Effect, 5-HT6 (h) (Agonist effect) (5-HT6 (h); [5]): -0.26% and -0.26 (100 µM) %
inhibition at 100 µM (5-HT6 (h); read-out: % Inhibition, 5-HT6 (h) (Antagonist effect)): -6.42%
CYP3A4 activity (recombinant human CYP3A4; 10 μM, ± SD): 100.4 ± 4.2 % of control
effect on CYP3A4 (recombinant human CYP3A4; only at the highest concentration of 25 μM): slight inhibition
inhibition at 10 µM (mGluR1; 10 μM, rat brain): -6.72%
inhibition at 100 µM (mGluR1): -6.72%
inhibition at 10 µM (Glutamate, NMDA, Glycine): -3%
inhibition at 50 µM (mGlu2 (h)): -8%
inhibition at 100 µM (hERG potassium channel): -8.02%
% Inhibition of control specific binding, GLYT1 Glycine Transporter ([2]; 10 μM): -2.00% and -1.00%
% Inhibition of control specific binding, GLYT1 Glycine Transporter ([2]; 100 μM): -1.00% and -2.00%
% Effect, D1 (h) (Agonist effect) (D1 (h); [5]): 1.70% and 1.70 (100 µM) %
inhibition at 100 µM (D1 (h); read-out: % Inhibition, D1 (h) (Antagonist effect)): -2.57%
% Effect, sst4 (h) (Agonist effect) (sst4 (h); [4]): -7.88% and -7.88 (10 µM) %
inhibition at 50 µM (sst4 (h); 50 μM, read-out: % Inhibition, sst4 (h) (Antagonist effect)): 8.25%
% Effect, 5-HT7 (h) (Agonist effect) (5-HT7 (h); [4]): -4.26% and -4.26 (10 µM) %
inhibition at 10 µM (5-HT7 (h); read-out: % Inhibition, 5-HT7 (h) (Antagonist effect)): -25%
inhibition at 100 µM (Dopamine transporter (h)): -2.69%
GlyRA1 agonist, % Control, Mean (GlyRA1): 1.94% and 1.94 (100 µM) %
GlyRA1 agonist, % Control, n1 (GlyRA1): 1.83%
GlyRA1 agonist, % Control, n2 (GlyRA1): 2.05%
effect on EAAT1-mediated glutamate uptake (EAAT1): no effects
% Effect, Alpha 1A (h) (Agonist effect) (Alpha 1A (h); [5]): -2.05% and 2.05 (100 µM) %
inhibition at 100 µM (Alpha 1A (h); read-out: % Inhibition, Alpha 1A (h) (Antagonist effect)): 1.28%
inhibition at 10 µM (Acetylcholinesterase (h)): 1.59%
inhibition at 100 µM [3]: 3.01%
inhibition at 100 µM (hCav3.2; read-out: hCav3.2 % Inhibition, Mean): -0.79%
inhibition at 100 µM (hCav3.2; read-out: hCav3.2 % Inhibition, n1): 5.25%
inhibition at 100 µM (hCav3.2; read-out: hCav3.2 % Inhibition, n2): -6.84%
% Effect, D2L (h) (Agonist effect) (D2L (h); [5]): 0.22% and 0.22 (100 µM) %
inhibition at 100 µM (D2L (h); read-out: % Inhibition, D2L (h) (Antagonist effect)): 3.27%

C[C@@H](C(=O)NCc1ccccc1)N1C(=O)CCC1=O [(S)-7, (S)-N-Benzyl-2-(2,5-dioxopyrrolidin-1-yl)propanamide]
Ki (human SV2A): 255 ± 69 µM
Binding to mouse SV2A (mouse SV2A): no binding observed
